# Assay results as given in PMC2631127 (Acta Crystallographica Section D: Biological Crystallography, 2008).
# Columns and labels:
# [1] = target: T4moF, bacterial oxidoreductase (Ectopseudomonas mendocina, UniProt Q03304); assay: reduction of MRF followed at […] nm, anaerobic; type: biochemical; conditions: electron acceptor MRF; 4 nM T4moF; 1 mM NADH
# [2] = target: human homolog of mouse Rieske-type ferredoxin (HRF) (Homo sapiens, UniProt Q8TAC1); assay: optical absorption spectrum of purified protein; type: binding; conditions: bound as purified
# Chain of human homolog of mouse Rieske-type ferredoxin (HRF) (Q8TAC1 2-157 limits assumed): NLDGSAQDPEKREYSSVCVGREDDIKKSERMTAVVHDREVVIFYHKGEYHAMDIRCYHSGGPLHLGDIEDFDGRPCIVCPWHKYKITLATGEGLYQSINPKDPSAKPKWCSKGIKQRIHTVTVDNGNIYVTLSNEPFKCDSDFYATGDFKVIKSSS
# Chain of T4moF, bacterial oxidoreductase (Q03304 whole entry): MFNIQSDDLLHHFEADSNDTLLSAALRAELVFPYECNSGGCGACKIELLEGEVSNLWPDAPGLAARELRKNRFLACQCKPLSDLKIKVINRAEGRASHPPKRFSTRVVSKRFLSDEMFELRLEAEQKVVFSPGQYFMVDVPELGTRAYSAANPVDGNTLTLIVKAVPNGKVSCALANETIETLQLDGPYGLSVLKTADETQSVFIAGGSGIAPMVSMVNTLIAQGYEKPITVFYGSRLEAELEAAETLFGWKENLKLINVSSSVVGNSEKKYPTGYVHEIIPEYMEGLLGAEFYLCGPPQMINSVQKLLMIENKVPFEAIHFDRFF
structure (smiles),measurement,setting,value
NC(=O)C1=CN([C@@H]2O[C@H](COP(=O)(O)OP(=O)(O)OC[C@H]3O[C@@H](n4cnc5c(N)ncnc54)[C@H](O)[C@@H]3O)[C@@H](O)[C@H]2O)C=CC1 [NADH],"reduction of MRF followed at 460 nm, anaerobic",[1],measured at multiple MRF concentrations in the presence of saturating NADH
[S]1[Fe][S][Fe]1 [[2Fe–2S] cluster],optical absorption spectrum of purified protein,[2],Expression and purification of HRF following the same protocol resulted in similar purity and [2Fe–2S]
